US8969516B2, “Method of hydrolysis of peptide bond” (priority 2006, dated 2015)

Test: MALDI-TOF screening of Ni^2+ dependent hydrolysis in a combinatorial peptide library
Assay type: physicochemical
Conditions: Ni^2+ 2 mM, pH 8.2, 10 mM Tris, score=24/tm
Summary of the method: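 Peptide sublibraries CH3CO-Gly-Ala-Ser/Thr-X-His-Z-Lys-Phe-Leu-NH2 (1 mM total) incubated with 2 mM Ni^2+ in 10 mM Tris pH 8.2 at 37 °C and 45 °C. Hydrolysis products, plus loss of substrate signals, detected by MALDI-TOF at 2, 4, 6 and 8 h; residues X and Z scored and ranked.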

[1] = CH3CO-Gly-Ala-Ser-X-His-Z-Lys-Phe-Leu-NH2 library, 37° C.
[2] = CH3CO-Gly-Ala-Ser-X-His-Z-Lys-Phe-Leu-NH2 library, 45° C.
[3] = CH3CO-Gly-Ala-Thr-X-His-Z-Lys-Phe-Leu-NH2 library, 37° C.
[4] = CH3CO-Gly-Ala-Thr-X-His-Z-Lys-Phe-Leu-NH2 library, 45° C.

Row | Substance | hydrolysis score from MALDI-TOF screening [1] | hydrolysis score from MALDI-TOF screening [2] | hydrolysis score from MALDI-TOF screening [3] | hydrolysis score from MALDI-TOF screening [4]
1 | Ac-GASFHAKFL-NH2 [SFHA] | 0 (a score of 0 if no trace of the product of hydrolysis was seen after 8 hours of incubation) | 3 (a score of 3 for detection at 8 hours) | – | –
2 | Ac-GASFHVKFL-NH2 [SFHV] | 3 (a score of 3 for detection at 8 hours) | 6 (a score of 6 for detection at 4 hours) | – | –
3 | Ac-GASSHSKFL-NH2 [SSHS] | 0 (a score of 0 if no trace of the product of hydrolysis was seen after 8 hours of incubation) | 3 (a score of 3 for detection at 8 hours) | – | –
4 | Ac-GATLHQKFL-NH2 [TLHQ] | – | – | 0 (a score of 0 if no trace of the product of hydrolysis was seen after 8 hours of incubation) | 0 (a score of 0 if no trace of the product of hydrolysis was seen after 8 hours of incubation)
5 | Ac-GATWHVKFL-NH2 [TWHV] | – | – | 0 (a score of 0 if no trace of the product of hydrolysis was seen after 8 hours of incubation) | 0 (a score of 0 if no trace of the product of hydrolysis was seen after 8 hours of incubation)
6 | Ac-GASMHTKFL-NH2 [SMHT] | 0 (a score of 0 if no trace of the product of hydrolysis was seen after 8 hours of incubation) | 0 (a score of 0 if no trace of the product of hydrolysis was seen after 8 hours of incubation) | – | –
7 | Ac-GATSHPKFL-NH2 [TSHP] | – | – | 0 (a score of 0 if no trace of the product of hydrolysis was seen after 8 hours of incubation) | 0 (a score of 0 if no trace of the product of hydrolysis was seen after 8 hours of incubation)
8 | Ac-GATQHHKFL-NH2 [TQHH] | – | – | 0 (a score of 0 if no trace of the product of hydrolysis was seen after 8 hours of incubation) | 0 (a score of 0 if no trace of the product of hydrolysis was seen after 8 hours of incubation)
9 | Ac-GASAHLKFL-NH2 [SAHL] | 0 (a score of 0 if no trace of the product of hydrolysis was seen after 8 hours of incubation) | 4 (a score of 4 for detection at 6 hours) | – | –
10 | Ac-GASAHDKFL-NH2 [SAHD] | 0 (a score of 0 if no trace of the product of hydrolysis was seen after 8 hours of incubation) | 0 (a score of 0 if no trace of the product of hydrolysis was seen after 8 hours of incubation) | – | –
11 | Ac-GASVHQKFL-NH2 [SVHQ] | 0 (a score of 0 if no trace of the product of hydrolysis was seen after 8 hours of incubation) | 0 (a score of 0 if no trace of the product of hydrolysis was seen after 8 hours of incubation) | – | –
12 | Ac-GATVHEKFL-NH2 [TVHE] | – | – | 0 (a score of 0 if no trace of the product of hydrolysis was seen after 8 hours of incubation) | 0 (a score of 0 if no trace of the product of hydrolysis was seen after 8 hours of incubation)
13 | Ac-GATIHIKFL-NH2 [TIHI] | – | – | 0 (a score of 0 if no trace of the product of hydrolysis was seen after 8 hours of incubation) | 0 (a score of 0 if no trace of the product of hydrolysis was seen after 8 hours of incubation)
14 | Ac-GASIHGKFL-NH2 [SIHG] | 0 (a score of 0 if no trace of the product of hydrolysis was seen after 8 hours of incubation) | 0 (a score of 0 if no trace of the product of hydrolysis was seen after 8 hours of incubation) | – | –
15 | Ac-GASFHFKFL-NH2 [SFHF] | 3 (a score of 3 for detection at 8 hours) | 6 (a score of 6 for detection at 4 hours) | – | –
16 | Ac-GATGHDKFL-NH2 [TGHD] | – | – | 0 (a score of 0 if no trace of the product of hydrolysis was seen after 8 hours of incubation) | 0 (a score of 0 if no trace of the product of hydrolysis was seen after 8 hours of incubation)
17 | Ac-GASPHVKFL-NH2 [SPHV] | 0 (a score of 0 if no trace of the product of hydrolysis was seen after 8 hours of incubation) | 0 (a score of 0 if no trace of the product of hydrolysis was seen after 8 hours of incubation) | – | –
18 | Ac-GATTHDKFL-NH2 [TTHD] | – | – | 0 (a score of 0 if no trace of the product of hydrolysis was seen after 8 hours of incubation) | 0 (a score of 0 if no trace of the product of hydrolysis was seen after 8 hours of incubation)
19 | Ac-GATNHAKFL-NH2 [TNHA] | – | – | 0 (a score of 0 if no trace of the product of hydrolysis was seen after 8 hours of incubation) | 0 (a score of 0 if no trace of the product of hydrolysis was seen after 8 hours of incubation)

Row | Substance | hydrolysis score from MALDI-TOF screening [1] | hydrolysis score from MALDI-TOF screening [2] | hydrolysis score from MALDI-TOF screening [3] | hydrolysis score from MALDI-TOF screening [4]
20 | Ac-GATRHSKFL-NH2 [TRHS] | – | – | 0 (a score of 0 if no trace of the product of hydrolysis was seen after 8 hours of incubation) | 0 (a score of 0 if no trace of the product of hydrolysis was seen after 8 hours of incubation)
21 | Ac-GASNHFKFL-NH2 [SNHF] | 3 (a score of 3 for detection at 8 hours) | 3 (a score of 3 for detection at 8 hours) | – | –
22 | Ac-GASSHYKFL-NH2 [SSHY] | 3 (a score of 3 for detection at 8 hours) | 3 (a score of 3 for detection at 8 hours) | – | –
23 | Ac-GASIHTKFL-NH2 [SIHT] | 0 (a score of 0 if no trace of the product of hydrolysis was seen after 8 hours of incubation) | 0 (a score of 0 if no trace of the product of hydrolysis was seen after 8 hours of incubation) | – | –
24 | Ac-GATKHVKFL-NH2 [TKHV] | – | – | 3 (a score of 3 for detection at 8 hours) | 6 (a score of 6 for detection at 4 hours)
25 | Ac-GATLHWKFL-NH2 [TLHW] | – | – | 3 (a score of 3 for detection at 8 hours) | 3 (a score of 3 for detection at 8 hours)
26 | Ac-GASHHSKFL-NH2 [SHHS] | 0 (a score of 0 if no trace of the product of hydrolysis was seen after 8 hours of incubation) | 0 (a score of 0 if no trace of the product of hydrolysis was seen after 8 hours of incubation) | – | –
27 | Ac-GASLHNKFL-NH2 [SLHN] | 0 (a score of 0 if no trace of the product of hydrolysis was seen after 8 hours of incubation) | 0 (a score of 0 if no trace of the product of hydrolysis was seen after 8 hours of incubation) | – | –
28 | Ac-GATRHQKFL-NH2 [TRHQ] | – | – | 0 (a score of 0 if no trace of the product of hydrolysis was seen after 8 hours of incubation) | 0 (a score of 0 if no trace of the product of hydrolysis was seen after 8 hours of incubation)
29 | Ac-GATWHSKFL-NH2 [TWHS] | – | – | 0 (a score of 0 if no trace of the product of hydrolysis was seen after 8 hours of incubation) | 0 (a score of 0 if no trace of the product of hydrolysis was seen after 8 hours of incubation)
30 | Ac-GASRHLKFL-NH2 [SRHL] | 12 (a score of 12, if it was seen to be partially hydrolysed at 2 hours) | 12 (a score of 12, if it was seen to be partially hydrolysed at 2 hours) | – | –
31 | Ac-GASKHYKFL-NH2 [SKHY] | 4 (a score of 4 for detection at 6 hours) | 4 (a score of 4 for detection at 6 hours) | – | –
32 | Ac-GASKHPKFL-NH2 [SKHP] | 0 (a score of 0 if no trace of the product of hydrolysis was seen after 8 hours of incubation) | 0 (a score of 0 if no trace of the product of hydrolysis was seen after 8 hours of incubation) | – | –
33 | Ac-GASWHNKFL-NH2 [SWHN] | 0 (a score of 0 if no trace of the product of hydrolysis was seen after 8 hours of incubation) | 0 (a score of 0 if no trace of the product of hydrolysis was seen after 8 hours of incubation) | – | –
34 | Ac-GATPHIKFL-NH2 [TPHI] | – | – | – | 0 (a score of 0 if no trace of the product of hydrolysis was seen after 8 hours of incubation)
35 | Ac-GATGHMKFL-NH2 [TGHM] | – | – | 0 (a score of 0 if no trace of the product of hydrolysis was seen after 8 hours of incubation) | 0 (a score of 0 if no trace of the product of hydrolysis was seen after 8 hours of incubation)
36 | Ac-GASSHTKFL-NH2 [SSHT] | 0 (a score of 0 if no trace of the product of hydrolysis was seen after 8 hours of incubation) | 0 (a score of 0 if no trace of the product of hydrolysis was seen after 8 hours of incubation) | – | –
37 | Ac-GASTHTKFL-NH2 [STHT] | 0 (a score of 0 if no trace of the product of hydrolysis was seen after 8 hours of incubation) | 0 (a score of 0 if no trace of the product of hydrolysis was seen after 8 hours of incubation) | – | –
38 | Ac-GATWHPKFL-NH2 [TWHP] | – | – | 0 (a score of 0 if no trace of the product of hydrolysis was seen after 8 hours of incubation) | 0 (a score of 0 if no trace of the product of hydrolysis was seen after 8 hours of incubation)
